Measurements reported in PubChem BioAssay (NCI).
Where “and” joins values, the source holds several entries; their conditions need not be identical. Equal values may be shown once.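 Dose response: 5 concentrations. Exposure: 48 h. Format: 96-well plates. Endpoint: linear interpolation; highest concentration if not reached. GI50 is the concentration that inhibits growth by half. TGI: total growth inhibition.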

What was measured:
Test in all cases: NCI-60 cell line screen, 48 h
MDA-N = system: MDA-N
KM20L2 colon = system: KM20L2 colon
SNB-78 CNS = system: SNB-78 CNS
HOP-18 NSCLC = system: HOP-18 NSCLC
LXFL 529 NSCLC = system: LXFL 529 NSCLC
DLD-1 colon = system: DLD-1 colon
RXF-631 renal = system: RXF-631 renal
XF 498 CNS = system: XF 498 CNS
DMS 114 small cell lung = system: DMS 114 small cell lung
SN12K1 renal = system: SN12K1 renal

O=S(=O)(F)Cc1ccccc1
TGI (MDA-N): > 100 µM

CC(=O)CC[N+](C)(C)C
TGI (KM20L2 colon): > 56.6 µM
TGI (SNB-78 CNS): 19.7 µM
TGI (HOP-18 NSCLC): 30.5 µM
TGI (LXFL 529 NSCLC): 27.2 µM
TGI (DLD-1 colon): 35.4 µM
TGI (MDA-N): > 100 µM
TGI (RXF-631 renal): > 100 µM

CC(=O)OC1(Sc2ccccc2)CC2[C@H]3COC(C)(C)O[C@H]3CC[C@@]2(C)CC1=O (some centres undefined)
TGI (KM20L2 colon): > 100 µM
TGI (SNB-78 CNS): > 100 µM
TGI (LXFL 529 NSCLC): > 100 µM
TGI (DLD-1 colon): > 100 µM
TGI (RXF-631 renal): > 100 µM
TGI (XF 498 CNS): 57.3 µM
TGI (DMS 114 small cell lung): > 100 µM

Cc1nc2ccccc2c(=O)n1/N=C(\N=Nc1ccc(Cl)cc1)c1cccc(-c2ccco2)c1
TGI (KM20L2 colon): > 100 µM
TGI (HOP-18 NSCLC): > 100 µM
TGI (LXFL 529 NSCLC): > 100 µM
TGI (DLD-1 colon): > 100 µM

CCC/C=C/C=C/C(=O)OC1/C(=C/C(=O)OC)CC2CC(C(C)O)OC(=O)CC(O)CC3CC(OC(C)=O)C(C)(C)C(O)(CC4C/C(=C/C(=O)OC)CC(/C=C/C(C)(C)C1(O)O2)O4)O3 (centres undefined)
GI50 (KM20L2 colon): > 10.9 µM and 6.51 µM
TGI (KM20L2 colon): > 10.9 µM and 11 µM
GI50 (SNB-78 CNS): 5.56 µM and 10.3 µM
TGI (SNB-78 CNS): 7.22 µM and 11 µM
GI50 (HOP-18 NSCLC): 1.76 µM and 6.05 µM
TGI (HOP-18 NSCLC): 2.52 µM and 10.8 µM
TGI (DLD-1 colon): > 10.9 µM and 11 µM
GI50 (MDA-N): > 12.5 µM
TGI (MDA-N): 11 µM and > 12.5 µM
GI50 (SN12K1 renal): > 11 µM
TGI (SN12K1 renal): > 11 µM
GI50 (XF 498 CNS): 4.43 µM
TGI (XF 498 CNS): 11 µM
GI50 (DMS 114 small cell lung): > 10.9 µM and 2.92 µM
TGI (DMS 114 small cell lung): > 10.9 µM and 8.97 µM

S=C1SCC2CCCN12 (centres undefined)
TGI (KM20L2 colon): > 100 µM
TGI (SNB-78 CNS): > 100 µM
TGI (HOP-18 NSCLC): > 100 µM
TGI (LXFL 529 NSCLC): > 100 µM
TGI (DLD-1 colon): > 100 µM
TGI (RXF-631 renal): > 100 µM
TGI (DMS 114 small cell lung): > 100 µM

Cc1c(C)c2cc3c(=O)c(CCl)coc3c(C)c2oc1=O
TGI (KM20L2 colon): > 100 µM
TGI (SNB-78 CNS): > 100 µM
TGI (HOP-18 NSCLC): > 100 µM
TGI (LXFL 529 NSCLC): > 100 µM
TGI (RXF-631 renal): > 100 µM
TGI (DMS 114 small cell lung): > 100 µM

N.N.N.N.N#N.N#N.[Cl-].[Os+6]
GI50 (KM20L2 colon): > 100 µM
TGI (KM20L2 colon): > 100 µM
GI50 (SNB-78 CNS): > 100 µM
TGI (SNB-78 CNS): > 100 µM
GI50 (HOP-18 NSCLC): 23.1 µM
TGI (HOP-18 NSCLC): > 100 µM
GI50 (LXFL 529 NSCLC): > 100 µM
TGI (LXFL 529 NSCLC): > 100 µM
GI50 (DLD-1 colon): > 100 µM
TGI (DLD-1 colon): > 100 µM

O=C(Nc1cc(Cl)c(I)c(Cl)c1)C(F)(F)F
TGI (MDA-N): > 100 µM

CC1(Cl)C(=O)NC(=O)N([C@H]2C[C@H](O)[C@@H](CO)O2)C1N=[N+]=[N-] (some centres undefined)
TGI (KM20L2 colon): > 100 µM
TGI (SNB-78 CNS): > 100 µM
TGI (HOP-18 NSCLC): > 100 µM
TGI (LXFL 529 NSCLC): > 100 µM
TGI (DLD-1 colon): > 100 µM
TGI (RXF-631 renal): > 100 µM
TGI (XF 498 CNS): > 100 µM
TGI (DMS 114 small cell lung): > 100 µM

COc1ccc2c(c1OC)C(=O)C2
TGI (KM20L2 colon): > 100 µM
TGI (HOP-18 NSCLC): > 100 µM
TGI (LXFL 529 NSCLC): > 100 µM
TGI (XF 498 CNS): > 100 µM
TGI (DMS 114 small cell lung): > 100 µM

COc1ccccc1/C=C1\C(=O)N(C(=O)Cc2ccccc2)N=C1C
TGI (SNB-78 CNS): > 100 µM
TGI (HOP-18 NSCLC): > 100 µM
TGI (DLD-1 colon): > 100 µM
TGI (XF 498 CNS): > 100 µM
TGI (DMS 114 small cell lung): > 100 µM

CC1=CC(=O)NP(=O)(Oc2ccc(Cl)cc2)N1 (centres undefined)
TGI (KM20L2 colon): > 100 µM
TGI (SNB-78 CNS): > 100 µM
TGI (HOP-18 NSCLC): > 100 µM
TGI (LXFL 529 NSCLC): > 100 µM
TGI (DLD-1 colon): > 100 µM
TGI (XF 498 CNS): > 100 µM
TGI (DMS 114 small cell lung): > 100 µM

COc1ccc([N+](=O)[O-])c2c(NCCCN(C)C)c(C)c(C)nc12
TGI (MDA-N): > 100 µM

CC(C)(C)C1=CC(=N/N=c2\scc(-c3ccccc3)n2Cc2ccccc2)C=C(C(C)(C)C)C1=O
TGI (KM20L2 colon): > 100 µM
TGI (LXFL 529 NSCLC): > 100 µM
TGI (XF 498 CNS): > 100 µM
TGI (DMS 114 small cell lung): > 100 µM

Cc1nc(-n2nc(-c3ccccc3)cc2-c2ccccc2)sc1C(=O)CC(=O)C(=O)Nc1ccc(Cl)c(Cl)c1
TGI (KM20L2 colon): > 100 µM
TGI (SNB-78 CNS): > 100 µM
TGI (HOP-18 NSCLC): > 100 µM
TGI (LXFL 529 NSCLC): > 100 µM
TGI (DLD-1 colon): > 100 µM
TGI (RXF-631 renal): > 100 µM
TGI (DMS 114 small cell lung): > 100 µM

N#CN1CC[C@@H]2CC3(CCC2C1)OCCO3 (some centres undefined)
TGI (KM20L2 colon): > 100 µM
TGI (SNB-78 CNS): > 100 µM
TGI (HOP-18 NSCLC): > 100 µM
TGI (LXFL 529 NSCLC): > 100 µM
TGI (DLD-1 colon): > 100 µM
TGI (RXF-631 renal): > 100 µM
TGI (XF 498 CNS): > 100 µM
TGI (DMS 114 small cell lung): > 100 µM

COCN1COCN(C)C1=O
TGI (KM20L2 colon): > 100 µM
TGI (SNB-78 CNS): > 100 µM
TGI (HOP-18 NSCLC): > 100 µM
TGI (DLD-1 colon): > 100 µM
TGI (XF 498 CNS): > 100 µM
TGI (DMS 114 small cell lung): > 100 µM

NCC(=O)Nc1ccc(Cl)cc1C(=O)c1ccc[nH]1
TGI (MDA-N): > 100 µM

O=C1NC(c2ccccc2)(c2ccccc2)C(=O)N1CCCCCCN1C(=O)NC(c2ccccc2)(c2ccccc2)C1=O
TGI (KM20L2 colon): > 100 µM
TGI (SNB-78 CNS): > 100 µM
TGI (HOP-18 NSCLC): > 100 µM
TGI (LXFL 529 NSCLC): > 100 µM
TGI (DLD-1 colon): > 100 µM
TGI (XF 498 CNS): 30.9 µM
TGI (DMS 114 small cell lung): > 100 µM

O=C(O)CCC(O)=C1S(=O)(=O)OCCOS1(=O)=O
TGI (KM20L2 colon): > 100 µM
TGI (SNB-78 CNS): > 100 µM
TGI (HOP-18 NSCLC): > 100 µM
TGI (LXFL 529 NSCLC): > 100 µM
TGI (DLD-1 colon): > 100 µM
TGI (MDA-N): > 100 µM
TGI (DMS 114 small cell lung): > 100 µM
